Experimental data reported in patent publication US20160368953A1, “BACTERIOCIN WITH NOVEL ACTIVITY” (The United States of America, as represented by the …, priority 2015, published 2016).

Experiments:
Pediococcus acidilactici [1] = conditions: Gilbreth and Somkuti (2005); positive control; cited from earlier work
[2] = test system: Streptococcus dysgalactiae; assay: agar diffusion method, zones of inhibition; assay type: cell-based; design: key: +++ represents very strong growth inhibition; ++ represents strong growth inhibition; + represents mild growth inhibition; − represents no growth inhibition; conditions: 50 μl CFS of S. thermophilus strain 110 grown in TYL, 7 h and 24 h samples identical; target in TYL
Procedure: (§1) S. thermophilus strain 110 (NRRL B59671) are grown overnight in tryptone-yeast extract-lactose (TYL) medium. The overnight culture is diluted in fresh TYL medium and grown for 7 or 24 hours. At each time point, a 1 ml sample is collected. Bacterial cells are removed from the 1 ml samples by centrifugation; and the cell free supernatants (CFS) are tested for antimicrobial activity using an agar diffusion method (see Gilbreth and Somkuti (2005) and Example 2 supra). Target agar plates are prepared by inoculating molten microbiological medium with the overnight growth of susceptible bacteria (0.5% v/v; 250 μl of culture into 50 ml of medium). The inoculated molten agar is poured into square dishes and left to harden at room temperature (approximately 10 minutes). Wells are made in the solidified agar plates using a sterile glass Pasteur pipette, and each well is filled with 50 μl of CFS samples. The agar plates are stored overnight at 4° C. to allow for diffusion of the CFS into the agar medium. The agar plates with loaded wells are then incubated at 37° C. to allow for growth of the target bacterium. The agar plates are monitored for growth of the target bacterium (agar medium becomes turbid), and the presence of clear zones around wells. […] Furthermore, antimicrobial activity is shown to be associated with a low-molecular weight peptide based on gel electrophoretic analysis (Gilbreth & Somkuti 2005). Agar diffusion assays are repeated a minimum of three times.

Streptococcus agalactiae = assay: agar diffusion method, zones of inhibition; assay type: cell-based; design: key: +++ represents very strong growth inhibition; ++ represents strong growth inhibition; + represents mild growth inhibition; − represents no growth inhibition; conditions: 50 μl CFS of S. thermophilus strain 110 grown in TYL, 7 h and 24 h samples identical; target in TYL
Procedure: as §1

Streptococcus uberus = assay: agar diffusion method, zones of inhibition; assay type: cell-based; design: key: +++ represents very strong growth inhibition; ++ represents strong growth inhibition; + represents mild growth inhibition; − represents no growth inhibition; conditions: 50 μl CFS of S. thermophilus strain 110 grown in TYL, 7 h and 24 h samples identical; target in TYL
Procedure: as §1

[3] = test system: Lactobacillus acidophilus; assay: agar diffusion method, zones of inhibition; assay type: cell-based; design: key: +++ represents very strong growth inhibition; ++ represents strong growth inhibition; + represents mild growth inhibition; − represents no growth inhibition; conditions: 50 μl CFS of S. thermophilus strain 110 grown in TYL, 7 h and 24 h samples identical; target in MRS
Procedure: as §1

Streptococcus mutans = assay: agar diffusion method, zones of inhibition; assay type: cell-based; design: key to Growth Inhibitory Activity: +++ represents very strong growth inhibition; ++ represents strong growth inhibition; + represents mild growth inhibition; − represents no growth inhibition
Procedure: (§2) Bacteriocin activity is measured using an agar diffusion method (see, Gilbreth & Somkuti (2005)). Cultures of S. thermophilus strain 110 (NRRL B59671) and S. thermophilus strain LMD-9 are grown at 37° C. to an OD660 between 0.8 and 1.0 in 10 ml tryptone-yeast extract medium (Somkuti & Steinberg 1986) formulated with lactose (TYL) or glucose (TYG), or M17 medium (Becton Dickinson Co., Sparks, Md.) formulated with glucose (M17G) or lactose (M17L). Cells are pelleted by high-speed centrifugation for collection of cell-free supernatants (CFS). CFS (˜50 μl) are loaded into precast wells in an agar medium seeded with the target bacteria (0.5% v/v). Bacterial targets included: S. thermophilus strain ST113 in TYL, P. acidilactici in MRS (Becton Dickinson Co., Sparks, Md.), and L. innocua in BHI (Beckton Dickinson Co., Sparks, Md.). Plates are allowed to equilibrate overnight at 4° C., and then are incubated at 37° C. for 8 hours and are examined for the appearance of zones of inhibition.
as §1

Streptococcus pyogenes = assay: agar diffusion method, zones of inhibition; assay type: cell-based; design: key to Growth Inhibitory Activity: +++ represents very strong growth inhibition; ++ represents strong growth inhibition; + represents mild growth inhibition; − represents no growth inhibition
Procedure: as §2, §1

Pediococcus acidilactici [4] = assay: antimicrobial activity of recombinant BlpU, SDS-PAGE gel overlay method; assay type: cell-based; conditions: expressed in E. coli BL21 pGEX-6P-1/blpU; before or after Factor Xa cleavage of the GST tag; FIG. 6
Excerpt: The nucleic acid sequence (162 base pairs; SEQ ID NO: 37) corresponding to the mature BlpU peptide (not including the 23 amino acid leader peptide) is amplified from the S. thermophilus strain 110 (NRRL-B59671) chromosome by PCR with the primers: forward: […] (BamHI—recognition site underlined; nucleotides encoding the Factor Xa recognition sequence (isoleucine-glutamic acid-glycine-arginine) are italicized) (SEQ ID NO: 34) and reverse: […] (XhoI—recognition site underlined) (SEQ ID NO: 35). […] The DNA fragment is subsequently cloned into the pGEX 6P-1 plasmid (GE Healthcare Life Sciences, Piscataway, N.J.) at the BamHI and XhoI sites. The resulting plasmid (pGEX 6P-1/blpU) encodes for a fusion protein with the glutathione S transferase (GST) tag on the N-terminus of BlpU, and expression is under control of an isopropyl β-D-1-thiogalactopyranoside (IPTG) inducible promoter. The plasmid is transformed into E. coli strain BL21 for recombinant expression of the fusion protein. […] The eluent from the dialysis bag is recovered and analyzed by SDS-PAGE for the presence of a ˜31 kDa fusion protein. […] The cleaved product is analyzed by SDS-PAGE for the presence of BlpU (silver nitrate staining) and antimicrobial activity against Pediococcus acidilactici (gel overlay method; Gilbreth and Somkuti, 2005).

Listeria innocua = assay: agar diffusion method, zones of inhibition; assay type: cell-based; design: key: +++ represents very strong growth inhibition; ++ represents strong growth inhibition; + represents mild growth inhibition; − represents no growth inhibition; conditions: 50 μl CFS of S. thermophilus strain 110 grown in TYL, 7 h and 24 h samples identical; target in BHI
Procedure: as §2
(§3) S. thermophilus strain 110 (NRRL B59671) are grown overnight in tryptone-yeast extract-lactose (TYL) medium. The overnight culture is diluted in fresh TYL medium and grown for 7 or 24 hours. At each time point, a 1 ml sample is collected. […] The agar plates are monitored for growth of the target bacterium (agar medium becomes turbid), and the presence of clear zones around wells. […]

Pediococcus acidilactici [5] = assay: agar diffusion method, zones of inhibition; assay type: cell-based; design: key: +++ represents very strong growth inhibition; ++ represents strong growth inhibition; + represents mild growth inhibition; − represents no growth inhibition; conditions: 50 μl CFS of S. thermophilus strain 110 grown in TYL, 7 h and 24 h samples identical; target in MRS
Procedure: as §2, §3

Propionibacterium acnes = assay: agar diffusion method, zones of inhibition; assay type: cell-based; design: key to Growth Inhibitory Activity: +++ represents very strong growth inhibition; ++ represents strong growth inhibition; + represents mild growth inhibition; − represents no growth inhibition
Procedure: S. thermophilus strain 110 (NRRL B59671) are grown overnight in tryptone-yeast extract-lactose (TYL) medium. The overnight culture is diluted in fresh TYL medium and grown for 7 or 24 hours. At each time point, a 1 ml sample is collected. Bacterial cells are removed from the 1 ml samples by centrifugation; and the cell free supernatants (CFS) are tested for antimicrobial activity using an agar diffusion method (see Gilbreth and Somkuti (2005) and Example 2 supra). Target agar plates are prepared by inoculating molten microbiological medium with the overnight growth of susceptible bacteria (0.5% v/v; 250 μl of culture into 50 ml of medium). The inoculated molten agar is poured into square dishes and left to harden at room temperature (approximately 10 minutes). Wells are made in the solidified agar plates using a sterile glass Pasteur pipette, and each well is filled with 50 μl of CFS samples. The agar plates are stored overnight at 4° C. to allow for diffusion of the CFS into the agar medium. The agar plates with loaded wells are then incubated at 37° C. to allow for growth of the target bacterium. The agar plates are monitored for growth of the target bacterium (agar medium becomes turbid), and the presence of clear zones around wells. […]

[6] = 50 μl CFS of S. thermophilus strain 110 grown in TYL, 7 h and 24 h samples identical, target in BHI

Substance: thermophilin 110: mature bacteriocin produced by S. thermophilus strain 110, amino acids 24-76 of SEQ ID NO: 1 (SEQ ID NO: 36), about 5 kDa (GCSWGGFAKQGVATGVGNGLRLGIKTRTWQGAVAGAAGGAIVGGVGYGATCWW; listed as Streptococcus thermophilus)
- zones of inhibition against P. acidilactici in prior studies (Pediococcus acidilactici [1]): very strong zones of inhibition
- Growth Inhibitory Activity [2]: −
- Growth Inhibitory Activity (Streptococcus agalactiae): −
- Growth Inhibitory Activity (Streptococcus uberus): +
- Growth Inhibitory Activity [3]: +++
- Growth Inhibitory Activity (Streptococcus mutans; 50 μl CFS of S. thermophilus strain 110 grown in TYL, 7 h and 24 h samples identical, target in Todd Hewitt): ++
- growth inhibitory activity against S. mutans (in words) (Streptococcus mutans; text summary of Table 4): strong growth inhibitory activity
- Growth Inhibitory Activity (Streptococcus pyogenes; [6]): +++
- growth inhibitory activity against S. pyogenes (in words) (Streptococcus pyogenes; text summary of Table 4): very strong growth inhibitory activity
- antimicrobial activity against P. acidilactici (Pediococcus acidilactici [4]): inhibition zone
- Growth Inhibitory Activity (Listeria innocua): +
- Growth Inhibitory Activity (Pediococcus acidilactici [5]): +++
- Growth Inhibitory Activity (Propionibacterium acnes; [6]): ++
- growth inhibitory activity against P. acnes (in words) (Propionibacterium acnes; text summary of Table 4): strong growth inhibitory activity
